Measurements as given in the supplement of paper PMC10307832.

Columns and labels:
Assay in all cases: relative viability (nuclei count vs DMSO), 5 days (fraction); higher = more cells survive
Shikonin + Luminespib = compound: CC(C)=CC[C@@H](O)C1=CC(=O)c2c(O)ccc(O)c2C1=O [Shikonin] + CCNC(=O)c1noc(-c2cc(C(C)C)c(O)cc2O)c1-c1ccc(CN2CCOCC2)cc1 [Luminespib] (partner 0.01 µM)
How it was run: (§1)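 Lung cancer cell lines were pin-tool dosed in 1536-well plates on the day after seeding, with either a lone drug or a fixed anchor-drug dose plus five library-drug doses (not always all listed) in √10 steps. Nuclei were counted on 4× images after 5 days. Relative viability is the ratio of treated-well to vehicle-well nuclei counts, with each value a median of duplicate plates.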

[1] = compound: CC(C)N(CCCNC(=O)Nc1ccc(C(C)(C)C)cc1)C[C@H]1O[C@@H](n2ccc3c(N)ncnc32)[C@H](O)[C@@H]1O + CC(=O)c1c(C)c2cnc(Nc3ccc(N4CCNCC4)cn3)nc2n(C2CCCC2)c1=O [Palbociclib] (partner 0.5 µM)
How it was run: as §1

[2] = compound: CC(C)N(CCCNC(=O)Nc1ccc(C(C)(C)C)cc1)C[C@H]1O[C@@H](n2ccc3c(N)ncnc32)[C@H](O)[C@@H]1O + O=C(CCCCCCC(=O)Nc1ccccc1)NO [Vorinostat] (partner 1 µM)
How it was run: as §1

[3] = compound: CC(C)N(CCCNC(=O)Nc1ccc(C(C)(C)C)cc1)C[C@H]1O[C@@H](n2ccc3c(N)ncnc32)[C@H](O)[C@@H]1O + COc1cccc2cc(-c3nc([C@H]4CC[C@H](C(=O)O)CC4)n4ncnc(N)c34)[nH]c12 [OSI-027] (partner 0.5 µM)
How it was run: as §1

UMC-11
relative viability (Shikonin + Luminespib; first compound 0.01 µM): 0.997
relative viability (Shikonin + Luminespib; first compound 0.1 µM): 1.05
relative viability (Shikonin + Luminespib; first compound 0.3162 µM): 0.986
relative viability (Shikonin + Luminespib; first compound 1 µM): 0.996
relative viability ([1]; first compound 0.08 µM): 0.294
relative viability ([1]; first compound 0.253 µM): 0.316
relative viability ([1]; first compound 0.8 µM): 0.304
relative viability ([1]; first compound 2.53 µM): 0.323
relative viability ([1]; first compound 8 µM): 0.28
relative viability ([2]; first compound 0.08 µM): 0.357
relative viability ([2]; first compound 0.253 µM): 0.419
relative viability ([2]; first compound 0.8 µM): 0.431
relative viability ([2]; first compound 2.53 µM): 0.35
relative viability ([2]; first compound 8 µM): 0.386
relative viability ([3]; first compound 0.08 µM): 0.458
relative viability ([3]; first compound 0.253 µM): 0.465
relative viability ([3]; first compound 0.8 µM): 0.453
relative viability ([3]; first compound 2.53 µM): 0.522
relative viability ([3]; first compound 8 µM): 0.532
